Test results published in PubChem BioAssay AID624491 (Broad Institute, 2012).

System: D54 ERlucT glycosylation luciferase reporter, luminescence, 24 h
Experiment: blockers of NLG process in reporter cells – D54 ERlucT cells, luminescence, cherry-picks, dose response (AID 624491);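 also: signal gain reflects blocked N-linked glycosylation of a luciferase reporter; actives raise luciferase signal so AC26 marks activators of the reporter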

| Structure (SMILES) | AC26 [nM] |
| --- | --- |
| O=C(Cn1cnc2c(NCc3ccccc3)ncnc21)NCc1ccccc1 | 1760 |
| Cc1cc(C)c2nc3nc(C)c(C)cc3c(N)c2c1 | 998 |
| Cc1ccc2nc(SCc3nnc(-c4ccccc4[N+](=O)[O-])o3)c(C#N)cc2c1 | 5790 |
| Cn1cccc1/C=C1\C(=O)NC(=O)N(Cc2ccccc2)C1=O | 267 |
| COc1ccc(/C=N/NC(=O)c2cccnc2)cc1COc1ccc(NC(C)=O)cc1 | 1990 |
| CCCCc1ccc(N/C(N)=N/c2nc(C)cc(C)n2)cc1 | 4690 |
| O=C(C[C@@H]1C/C=C/CC[C@H](Cc2ccc(F)cc2)C(=O)OC[C@@H](Cc2ccccc2)NC1=O)N[C@H](CO)Cc1ccccc1 | 4880 |
| NNC(=O)c1oc2nc(-c3ccco3)cc(-c3ccco3)c2c1N | 4260 |
| Cc1nnc(NC(=O)CSc2nc(C(C)C)nc3ccccc23)s1 | 971 |
| Oc1ccc(C2=NNC(=NCc3ccc4c(c3)OCO4)SC2)c(O)c1 | 4890 |
| O=C(COc1ccccc1CNCc1ccccc1)Nc1ccccc1 | 850 |
| COc1ccc(C2=Nn3c(nnc3-c3ccccc3F)SC2)cc1OC1CCOC1 (configuration not stated) | 4730 |
| COc1cc(OC)cc(C(=O)NCC(=O)Nc2ccc(-c3ccccc3)cc2)c1 | 8830 |
| Cn1c(=O)n(C)c2cc(NS(=O)(=O)c3ccc(C(C)(C)C)cc3)ccc21 | 9340 |
| C[C@@]12C(=O)Nc3cc(F)ccc3C(=O)N1[C@H]1c3ccccc3OC[C@@H]1[C@@H]2c1ccccc1 | 1870 |
| CC[C@H](C)[C@@H](NC(=O)O[C@@H]1C(=O)c2cc(OC)ccc2O[C@H]1c1ccc(OC)c(Br)c1)C(=O)OC | 335 |
| CC(=O)C1=C(O)C(=O)N(c2ccc(Br)cn2)C1c1ccc(Br)cc1 (configuration not stated) | 491 |
| Nc1ccc(-c2cc(NC=O)c3ncc(-c4cccc(C(F)(F)F)c4)n3c2)cn1 | 3430 |
| COc1ccc(-c2cc(-c3ccc(O)cc3)nc(N)c2C#N)cc1OC | 4050 |
| O=C(NO)c1ccc(OC(F)F)cc1 | 3430 |
| COc1cccc(C2=CC(c3cccs3)n3nnnc3N2)c1 (configuration not stated) | 700 |
| Cc1ccsc1CNc1ncnc2ccc(-c3c(C)noc3C)cc12 | 102 |

| Structure (SMILES) | AC26 [nM] |
| --- | --- |
| Cc1ccc(NC(=O)c2ccc(Cl)cc2[N+](=O)[O-])nc1 | 1080 |
| COc1ccc(NC(=O)C2Cc3c(-c4cccc(C(C)=O)c4)ccnc3O2)cn1 (configuration not stated) | 203 |
| COc1ccccc1N1CCN(c2ccc3c(c2)S(=O)(=O)c2cccc(C(=O)NCC4CC4)c2C3=O)CC1 | 4550 |
| COc1cc(Nc2c3c(nc4ccccc24)CCC3)cc(OC)c1OC | 71.5 |
| COc1ccc(CNC(=O)C/C(C)=N/NC(=O)COc2ccc(C)cc2Br)cc1 | 5660 |
| NC(N)=N/N=C/c1ccc2cccc(OCc3ccccc3)c2n1 | 4150 |
| COC(=O)c1[nH]c2cc(OC)c(OC)cc2c1/C=N/Nc1ccccc1 | 6360 |
| COc1cc(/C=N/Nc2nc3c(c(=O)n(C)c(=O)n3C)n2Cc2ccccc2)ccc1OC(=O)c1ccco1 | 10500 |
| Cn1c(=O)n(C)c2cc(NS(=O)(=O)c3ccccc3)ccc21 | 3430 |
| Cc1cccc(NC(=O)c2cnn3ccccc23)c1C | 9570 |
| CN=C(SCC(=O)c1cccc(Cl)c1)c1c(O)n(C)c(=O)n(C)c1=O | 2590 |
| Nc1c(C(=O)Nc2ccc(S(=O)(=O)N3CCCC3)cc2)sc2nc3ccc(OC(F)(F)F)cc3cc12 | 1160 |
| CC(=O)c1cccc(Nc2cc(C)nc3c(C)cccc23)c1 | 5870 |
| COc1ccc(C(=O)Nc2sc(C)c(C)c2CN2CC(C)OC(C)C2)cc1 (configuration not stated) | 659 |
| O=C(CNC(=O)c1ccco1)N=Nc1c(O)n(CCc2ccccc2)c2ccccc12 | 1430 |
| COc1ccc2cc(CN(CC3CCCO3)C(=O)Nc3ccccc3OC)c(=O)[nH]c2c1 (configuration not stated) | 4020 |
| CCOc1ccc(Nc2c3ccccc3nc3ccccc23)cc1 | 365 |
| CC(C)CCN(C(=O)Cc1ccc(Cl)c(Cl)c1)c1c(N)n(Cc2ccccc2)c(=O)[nH]c1=O | 2080 |
| COc1ccccc1N=CC1=C(O)CC(c2ccccc2)CC1=O (configuration not stated) | 2740 |
| COc1cc2c(c(OC)c1OC)-c1ccc(OC)c(=O)cc1[C@@H](N(C)CC#CCO)CC2 | 380 |
| Cc1ccc2nsnc2c1NC(=O)c1ccc(-c2cc(Cl)ccc2Cl)o1 | 846 |
| CNc1ccc(Br)cc(C(=O)/C=C/c2ccc(Cl)cc2Cl)c1=O | 8890 |

| Structure (SMILES) | AC26 [nM] |
| --- | --- |
| O=C1CCCN1c1ccc(S(=O)(=O)Nc2ccc3c(c2)OCCO3)cc1 | 9890 |
| CC12CC[C@H]3[C@@H](CCC4(O)C[C@H](O)CCC34/C=N/NC(=O)c3ccccc3O)C1(O)CCC2C1=CC(=O)OC1 (some centres not stated) | 6060 |
| CCCNS(=O)(=O)c1cccc(C(=O)OCc2cc(=O)oc3cc(OC)ccc23)c1 | 834 |
| CCOc1ccc(NC(=O)C(=O)NCCN2CCN(S(=O)(=O)c3ccc(C)cc3)CC2)cc1 | 4890 |
| CN(C)CCNc1cccc2sc3ccc(O)cc3c(=O)c12 | 500 |
| Cn1cnc(Sc2ncnc3nc[nH]c23)c1[N+](=O)[O-] | 1140 |
| Cc1nn(-c2ccccc2)c2c1CC(=O)Nc1ccccc1-2 | 329 |
| COc1ccc2nc3c(cc2c1)c(NC(=O)CC(C)C)nn3CC(C)C | 8100 |
| Nc1ncnc(Sc2ccc(Cl)cc2)c1[N+](=O)[O-] | 13400 |
| COc1ccc(/C(C)=N/NC(=O)c2ccccc2OCc2ccccc2)c(OC)c1 | 121 |
| CCOc1ccccc1C(=O)Nc1ccsc1C(=O)OC | 1300 |
| Cc1cc(=O)[nH]c2c(C)cc(S(=O)(=O)N3CCCCC3)cc12 | 4410 |
| Cc1ccc(Nc2nc(-c3sc(C)nc3C)cs2)cc1 | 481 |
| COc1cc(C(=O)N/N=C/c2ccc3c(c2)c2ccccc2n3C)ccc1O | 4070 |
| C[C@H]1CN([C@@H](C)CO)C(=O)Cc2cc(NC(=O)CCC(F)(F)F)ccc2O[C@H]1CN(C)S(=O)(=O)c1ccc(F)cc1 | 5300 |
| C=CCN=C(SCC(=O)c1ccc(Cl)cc1)c1c(O)n(C)c(=O)n(C)c1=O | 2340 |
| c1cnc2nc3c4ccccc4c4ccccc4c3nc2c1 | 10200 |
| CC12CC[C@H]3[C@@H](CCC4(O)C[C@H](O)CCC34/C=N/NC(=O)c3ccccc3[N+](=O)[O-])C1(O)CCC2C1=CC(=O)OC1 (some centres not stated) | 4280 |
| O=C(NCCc1ccc(F)cc1)c1coc(=O)c(Br)c1 | 413 |
| COc1ccc(-c2ccnc(-c3ccncc3)n2)cc1 | 1390 |
| COc1cc(OC)c2nc(C)c3c(c2c1)N(c1ccc(O)cc1)CC3 | 1190 |
| C[C@@H](NC(=O)c1ncn2c1c(=O)[nH]c1ccc(Br)cc12)c1ccccc1 | 2060 |

| Structure (SMILES) | AC26 [nM] |
| --- | --- |
| Cc1cc2c(cc(C(=O)OCC(=O)NCc3ccco3)n2C)s1 | 198 |
| COc1cc(C(=O)Nc2ccc3c(c2)nc(C)n3C)cc(OC)c1OC | 2690 |
| CC(=O)c1cccc(NC(=O)CSc2ncc(C(=O)Nc3ccccc3)c(=O)n2C)c1 | 1350 |
| O=C(Nc1ccccc1N1CCOCC1)c1ccc2nc[nH]c2c1 | 1130 |
| CC(C)Oc1ccc(F)cc1-c1cc(C(=O)Nc2ccc(C(C)(C)C)cc2)[nH]n1 | 2040 |
| COc1cc(C(=O)OCC(C)=O)ccc1OCc1c(C)noc1C | 3270 |
| CCc1ccc(/C=N/NC(=O)c2nnn(-c3nonc3N)c2C(C)C)cc1 | 6420 |
| CCOC(=O)c1c(NC(C)=O)sc2c(OCCN(CC)CC)c(Br)ccc12 | 2690 |
| C=CCn1c(O)c(C(CC)=NC(C)c2ccccc2)c(=O)[nH]c1=O (configuration not stated) | 3140 |
| COc1cc2c(C#CCCO)c(-c3ccsc3)oc(=O)c2cc1OC | 226 |
| CCOc1ccc2[nH]c(C(=O)N/N=C/c3cc(OC)c(OC)c(OC)c3)cc2c1 | 1320 |
| Cc1cc(NC(=O)CSc2nc(-c3ccco3)cc(C(F)(F)F)n2)no1 | 565 |
| COc1ccccc1-c1csc(C(NC(C)=O)c2ccc(F)c(F)c2)n1 (configuration not stated) | 341 |
| COc1cc([C@@H]2c3cc4c(cc3[C@@H](OC)[C@H]3COC(=O)[C@H]23)OCO4)cc(OC)c1O | 501 |
| COc1cccc(/C=N/NC(=O)c2cc3c(OC)c(OC)ccc3[nH]2)c1OC | 5850 |
| COc1ccc(OC)c(Nc2ncnc3c2cnn3-c2cccc(C)c2)c1 | 3240 |
| CC(C)N(CC(=O)Nc1ccc(Cl)cc1C(F)(F)F)C(=O)CCl | 14500 |
| COc1ccc([C@H]2CC(=O)C=C(c3c(OC)cccc3OC)C2)cc1 | 3260 |
| CC(=O)c1sc(Nc2cccc3ccccc23)nc1C | 6110 |
| CC(=O)c1cccc(-c2ccnc3c2CC(C(=O)NCC2CCOCC2)O3)c1 (configuration not stated) | 2070 |
| COc1cccc(C2=CC(c3cccc(OC)c3OC)n3nnnc3N2)c1 (configuration not stated) | 1300 |
| CN(C)S(=O)(=O)c1ccc(N2CCCC2)c(C(=O)Nc2nc(-c3ccc(F)cc3)cs2)c1 | 1550 |

| Structure (SMILES) | AC26 [nM] |
| --- | --- |
| CCOC(=O)c1ccc(Oc2cc(C)nc(SC)n2)cc1 | 1720 |
| O=C(N/N=C\c1cn(-c2ccccc2)nc1-c1ccccc1)c1ccc(Br)o1 | 9570 |
| CC[C@H](C)C(=O)O[C@H]1CCC=C2C=C[C@H](C)[C@H](CC[C@@H]3C[C@@H](O)CC(=O)O3)[C@H]21 | 180 |
| CC(=O)c1cccc(Nc2c3c(nc4ccccc24)CCC3)c1 | 819 |
| COc1ccc2[nH]c(C(=O)N3CCN(Cc4ccccc4)CC3)cc2c1OC | 1130 |
| COc1ccc2c(c1)OC[C@H]1[C@H]2N2C(=O)c3ccc(C)cc3NC(=O)[C@@]2(C)[C@H]1c1ccccc1 | 926 |
| O=C(c1[nH]c(C(F)(F)F)nc1-c1ccccc1)N1CCN(c2ccccc2)CC1 | 395 |
| O=C1NC[C@H](Cc2ccccc2)N(C[C@H]2CCCN2C[C@H](Cc2ccccc2)N2C[C@H](Cc3ccc(O)cc3)N(CCc3ccccc3)C(=O)C2=O)C1=O | 5790 |
| COc1ccc(-c2nn(C)c(=O)c3ccccc23)cc1NS(C)(=O)=O | 4620 |
| COc1ccc(C(=O)CSc2nnc(-c3cc4ccccc4cc3O)n2Cc2ccco2)cc1 | 1840 |
| Cc1c(C(=O)C(=O)N2c3ccc(F)cc3CCC2C)c2ccccc2n1C (configuration not stated) | 5780 |
| N#CC1=C(N)Oc2c(c(=O)sc3ccccc23)C1c1cccnc1 (configuration not stated) | 2860 |
| O=c1[nH]c(=O)n([C@H]2C[C@H](O)[C@@H](CO)O2)cc1I | 5190 |
| O=C(NCCCn1ccnc1)c1cc(-c2cccs2)on1 | 3430 |
| Cc1ccc(N2CC(C(=O)Nc3ccc(S(=O)(=O)N4CCOCC4)cc3)CC2=O)cc1Cl (configuration not stated) | 3860 |
| c1ccc2cc3c(NCCN4CCOCC4)ccnc3cc2c1 | 515 |
| COc1cc(/C=N\NC(=O)c2sc(N)nc2C)cc(OC)c1OC | 3140 |
| COc1ccccc1OCC(=O)NNC(=O)c1ccoc1C | 722 |
| COc1ccc(CNC(=O)c2cccc3c(-c4cccnc4)coc23)cc1OC | 2690 |
